Laboratory results reported in US8946301B2, “Targeting of T-lymphocytes to treat amyotrophic lateral sclerosis” (ALS Therapy Development Institute, priority 2011, dated 2015).

System: lymphocytes in the spleen
Assay: Lymphocyte cell counts in spleen by FACS
Type: in vivo, mouse
Settings: vs untreated SOD1
Method: FIG. 5 is a graph showing cell counts in spleens of animals. SOD1 animals received a loading dose of 2.5 mg/kg fingolimod orally, then oral 1.8 mg/kg once weekly for 3 weeks. Lymphocyte counts were measured via FACS for various cell surface antigens in the spleen.
Lymphocytes were also measured in the spleens of SOD1 fingolimod treated mice and untreated SOD1 mice. After sacrifice, spleens were harvested from each animal and subjected to fluorescent activated cell sorting for each of the cell surface antigens: CD11b, CD28, CD3, CD4, CD86, […], and LY6G.

CCCCCCCCc1ccc(CCC(N)(CO)CO)cc1 [fingolimod, 2-amino-2-(4-octylphenethyl)propane-1,3-diol]
decreased lymphocyte count: lymphocyte count, CD11b (load 2.5 mg/kg oral then 1.8 mg/kg once weekly for 3 weeks) | lymphocyte count, CD3 (same regimen) | lymphocyte count, CD4 (same regimen) | lymphocyte count, CD28 (same regimen) | lymphocyte count, CD86 (same regimen) | lymphocyte count, CTLA34 (same regimen) | lymphocyte count, LY6G (same regimen)
